Results from patent US9814709B2, “Bruton's tyrosine kinase inhibitor” (HEFEI INSTITUTES OF PHYSICAL SCIENCE, CHINESE ACADEMY OF …, priority 2014, dated 2017).

System: SD rat adjuvant arthritis (AA) model
Experiment: SD rat adjuvant arthritis (AA) model, arthritis index
Assay type: in vivo
Protocol: In this example, SD rat adjuvant arthritis (AA) model (purchased from the Experimental Animal Center of Anhui Province) was used. PCI-32765 and methotrexate (MTX) were used as positive control (both purchased from Shanghai Chemexpress). The therapeutic effect of Compound 1 on AA rats was studied via the combination of in vivo and in vitro administration. 10 mg/nal of complete Freund's adjuvant (CFA, purchased from Shanghai Chemexpress) was mixed well, and 0.1 ml of CFA was intracutaneously injected into each rat at right posterior plantar to induce inflammation. The normal group was injected with saline via the same method. On the 17th day, the successful modeling male SD rats were randomly divided into 7 groups with 10 rats in each group, namely the model group, the small/medium/large dose of Compound 1 group (12.5, 25, 50 mg/kg/per administration, intraperitoneal injection, one administration per day for 16 days), the Compound 19 group (25 mg/kg/per administration, intraperitoneal injection, one administration per day for 16 days), the positive control PCI-32765 group (25 mg/kg/per administration, intraperitoneal injection, one administration per day for 16 days), the MTX group (0.5 mg/kg, intragastrical, one administration every 3 days, totally 6 times). The rats in the model group were intraperitoneally injected with the same amount of DMSO solution.

| Structure (SMILES) | effect on arthritis index of rats compared with the model group (0.5 mg/kg intragastrical every 3 days, starting from day 21) | effect on arthritis index of rats (25 mg/kg intraperitoneal once per day, starting from day 24) |
| --- | --- | --- |
| CN(Cc1cnc2nc(N)nc(N)c2n1)c1ccc(C(=O)N[C@@H](CCC(=O)O)C(=O)O)cc1 [MTX, methotrexate, reference compound] | significantly reduced | – |
| C=CC(=O)N1CCC[C@@H](n2nc(-c3ccc(Oc4ccccc4)cc3)c3c(N)ncnc32)C1 [PCI-32765, reference compound] | – | significantly reduce |
